# From US9416133B2, “Hydropyrrolopyrrole derivatives for use as fatty acid synthase inhibitors” (MERCK PATENT GMBH, priority 2012, dated 2016)
# Biological target: T1, human recombinant full-length fatty acid synthase (FASN) (Homo sapiens, UniProt P49327)
# T1 construct: 40 nM human recombinant full-length fatty acid synthase (produced in-house in SF9 cells); made in house; host or cells: SF9 cells
# Assay: Biochemical activity testing of human fatty acid synthase FASN (NADPH fluorescence intensity enzyme assay)
# Conditions: inhibition of NADPH conversion
# Source text: Biochemical Activity Testing of Human Fatty Acid Synthase FASN
# Fatty acid synthase FASN is a multifunctional enzyme with seven catalytic activities thereby synthesising long chain fatty acids especially palmitoyl-CoA in the presence of co-factor NADPH starting from the substrates acetyl-CoA and malonyl-CoA. The reductive synthesis is realized by the oxidation of NADPH to NADP. Since NADPH has a high fluorescence intensity quantum yield compared to NADP with excitation at 340 nm and emission at 460 nm, the reaction can be monitored via the decrease in fluorescence intensity. The biochemical FASN activity testing was performed as 384 well two-time-point kinetic fluorescence intensity assay format in Greiner low volume medium binding 384-well black microtiter plates in a total assay volume of 8 μl and was used for high throughput screen. In each well 3 μl 40 nM human recombinant full-length fatty acid synthase (produced in-house in SF9 cells) were dispensed in the following assay buffer: 50 mM potassium phosphate buffer pH 7.0, 0.005% (w/v) BSA, 2 mM Glutathione, 0.02% Tween-20. Then 2 μl of 200 μM NADPH in assay buffer were added, followed by the addition of the test compounds in 10 dilution concentrations starting with 30 μM (final concentration) to get a final DMSO content of 1% (v/v). The mixture was incubated for at least 15 min at room temperature. After the pre-incubation the enzymatic reaction was started by the addition of 2 μl substrate solution (80 μM acetyl-CoA, 240 μM malonyl-CoA). A first fluorescence intensity measurement (time point one) was performed with an Envision multimode reader (Perkin Elmer LAS Germany GmbH) at excitation wavelength 340 nm (lamp mode) and emission wavelength 460 nm. The reaction was incubated for 30 minutes at room temperature. After this the fluorescence intensity was measured again in the Envision using the same parameters as described above (second time point measurement). The data were analysed by subtracting the first time point measurement value from the second time point measurement value (after the enzymatic reaction). The differences of the emission signals were determined. These reflect directly the conversion rate of NADPH. The full value used was the inhibitor-free reaction. A pharmacological zero value was used like GSK837149A (Sigma-Aldrich) in a final concentration of 5-10 μM. The inhibitory values (IC50) were determined using either the program Symyx Assay Explorer® or Condosseo® from GeneData.
# T1 sequence (P49327 whole entry): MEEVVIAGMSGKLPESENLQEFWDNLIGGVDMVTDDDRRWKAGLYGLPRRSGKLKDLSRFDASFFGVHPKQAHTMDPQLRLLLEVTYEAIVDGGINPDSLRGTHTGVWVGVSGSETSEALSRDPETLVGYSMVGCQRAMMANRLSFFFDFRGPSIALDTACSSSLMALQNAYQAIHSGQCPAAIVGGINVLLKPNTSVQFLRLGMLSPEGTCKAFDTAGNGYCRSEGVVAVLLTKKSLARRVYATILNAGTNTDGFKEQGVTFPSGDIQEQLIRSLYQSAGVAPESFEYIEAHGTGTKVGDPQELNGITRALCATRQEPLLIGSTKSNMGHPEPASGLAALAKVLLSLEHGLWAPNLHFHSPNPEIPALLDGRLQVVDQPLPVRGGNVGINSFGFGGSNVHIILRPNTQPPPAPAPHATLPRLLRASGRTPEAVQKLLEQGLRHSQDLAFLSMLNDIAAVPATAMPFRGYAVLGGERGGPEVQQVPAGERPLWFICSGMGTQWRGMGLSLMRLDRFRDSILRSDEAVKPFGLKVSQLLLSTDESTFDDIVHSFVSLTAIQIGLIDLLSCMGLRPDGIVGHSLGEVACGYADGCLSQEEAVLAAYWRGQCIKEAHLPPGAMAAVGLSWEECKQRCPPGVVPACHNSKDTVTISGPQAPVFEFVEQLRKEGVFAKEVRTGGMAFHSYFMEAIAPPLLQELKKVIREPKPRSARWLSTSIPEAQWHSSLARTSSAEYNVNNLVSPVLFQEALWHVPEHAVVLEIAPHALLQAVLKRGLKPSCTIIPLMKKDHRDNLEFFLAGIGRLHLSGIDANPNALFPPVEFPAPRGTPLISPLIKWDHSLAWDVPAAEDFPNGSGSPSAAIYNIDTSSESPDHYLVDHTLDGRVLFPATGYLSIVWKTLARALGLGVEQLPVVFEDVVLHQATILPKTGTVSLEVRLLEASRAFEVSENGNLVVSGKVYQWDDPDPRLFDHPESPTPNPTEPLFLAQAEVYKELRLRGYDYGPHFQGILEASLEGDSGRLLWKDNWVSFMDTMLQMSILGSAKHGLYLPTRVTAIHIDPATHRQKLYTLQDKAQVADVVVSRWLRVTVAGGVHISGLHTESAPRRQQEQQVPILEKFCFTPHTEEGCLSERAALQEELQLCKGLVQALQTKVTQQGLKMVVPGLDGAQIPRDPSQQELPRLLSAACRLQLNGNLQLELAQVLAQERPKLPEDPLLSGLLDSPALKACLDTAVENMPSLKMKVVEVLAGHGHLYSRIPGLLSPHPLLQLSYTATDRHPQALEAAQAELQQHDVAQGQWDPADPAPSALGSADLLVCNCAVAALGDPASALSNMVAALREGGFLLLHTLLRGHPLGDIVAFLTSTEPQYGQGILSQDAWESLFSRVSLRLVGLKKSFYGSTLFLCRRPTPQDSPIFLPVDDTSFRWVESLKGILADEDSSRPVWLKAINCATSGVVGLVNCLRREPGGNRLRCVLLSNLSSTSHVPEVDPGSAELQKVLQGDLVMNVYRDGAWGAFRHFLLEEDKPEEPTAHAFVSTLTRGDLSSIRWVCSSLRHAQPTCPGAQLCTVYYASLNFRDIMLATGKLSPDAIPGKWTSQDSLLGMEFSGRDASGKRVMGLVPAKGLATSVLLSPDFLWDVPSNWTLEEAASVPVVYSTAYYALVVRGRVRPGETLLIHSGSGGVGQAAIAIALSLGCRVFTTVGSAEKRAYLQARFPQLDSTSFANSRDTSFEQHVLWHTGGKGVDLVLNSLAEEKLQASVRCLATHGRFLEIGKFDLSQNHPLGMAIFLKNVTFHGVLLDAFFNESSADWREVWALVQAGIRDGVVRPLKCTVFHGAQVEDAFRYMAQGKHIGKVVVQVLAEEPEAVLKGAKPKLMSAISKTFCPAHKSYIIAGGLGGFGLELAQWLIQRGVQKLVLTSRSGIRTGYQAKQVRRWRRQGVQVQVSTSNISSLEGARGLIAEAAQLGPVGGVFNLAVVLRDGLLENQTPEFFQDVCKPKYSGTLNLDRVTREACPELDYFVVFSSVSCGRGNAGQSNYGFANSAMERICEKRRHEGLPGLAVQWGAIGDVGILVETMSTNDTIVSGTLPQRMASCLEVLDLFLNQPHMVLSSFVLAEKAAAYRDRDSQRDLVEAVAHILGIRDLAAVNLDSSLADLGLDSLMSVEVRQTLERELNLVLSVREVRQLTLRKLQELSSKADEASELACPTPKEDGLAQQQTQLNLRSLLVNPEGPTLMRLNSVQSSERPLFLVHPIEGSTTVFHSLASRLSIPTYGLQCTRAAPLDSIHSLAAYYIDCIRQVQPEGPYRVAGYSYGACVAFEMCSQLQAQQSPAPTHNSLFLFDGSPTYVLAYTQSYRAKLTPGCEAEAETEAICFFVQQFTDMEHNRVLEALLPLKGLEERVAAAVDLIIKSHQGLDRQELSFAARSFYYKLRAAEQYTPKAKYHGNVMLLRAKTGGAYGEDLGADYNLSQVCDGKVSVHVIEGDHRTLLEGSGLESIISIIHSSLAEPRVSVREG
row,IC50,Compound
1,< 0.3 µM,"CCC(=O)N1CC2CN(C(=O)c3ccc(-c4ccc5cnccc5c4)cc3)CC2C1 (centres unmarked) [Compound A1, 1-[5-(4-isoquinolin-6-yl-benzoyl)-hexahydro-pyrrolo[3,4-c]pyrrol-2-yl]-propan-1-one]"
2,0.3 to 3 µM,"CCC(=O)N1CC2CN(C(=O)c3ccc(-c4ccc5ccoc5c4)cc3)CC2C1 (centres unmarked) [Compound A2, 1-[5-(4-benzofuran-6-yl-benzoyl)-hexahydro-pyrrolo[3,4-c]pyrrol-2-yl]-propan-1-one]"
3,0.3 to 3 µM,"CC(=O)N1CC2CN(C(=O)c3ccc(-c4ccc5cnccc5c4)cc3)CC2C1 (centres unmarked) [Compound A3, 1-[5-(4-isoquinolin-6-yl-benzoyl)-hexahydro-pyrrolo[3,4-c]pyrrol-2-yl]-ethanone]"
4,0.3 to 3 µM,"CCC(=O)N1CC2CN(C(=O)c3ccc(-c4ccc5cc[nH]c5c4)cc3)CC2C1 (centres unmarked) [Compound A4, 1-{5-[4-(1H-indol-6-yl)-benzoyl]-hexahydro-pyrrolo[3,4-c]pyrrol-2-yl}-propan-1-one]"
5,0.3 to 3 µM,"O=C(c1ccc(-c2ccc3cc[nH]c3c2)cc1)N1CC2CN(C(=O)C3CC3)CC2C1 (centres unmarked) [Compound A5, (5-cyclopropanecarbonyl-hexahydro-pyrrolo[3,4-c]pyrrol-2-yl)-[4-(1H-indol-6-yl)-phenyl]-methanone]"
6,3 to 50 µM,"CC(=O)N1CC2CN(C(=O)c3ccc(-c4ccc5ccoc5c4)cc3)CC2C1 (centres unmarked) [Compound A6, 1-[5-(4-benzofuran-6-yl-benzoyl)-hexahydro-pyrrolo[3,4-c]pyrrol-2-yl]-ethanone]"
7,0.3 to 3 µM,"CC(=O)N1CC2CN(C(=O)c3ccc(-c4ccc5cc[nH]c5c4)cc3)CC2C1 (centres unmarked) [Compound A7, 1-{5-[4-(1H-indol-6-yl)-benzoyl]-hexahydro-pyrrolo[3,4-c]pyrrol-2-yl}-ethanone]"
8,0.3 to 3 µM,"O=C(c1ccc(-c2ccc3cnccc3c2)cc1)N1CC2CN(C(=O)C3CC3)CC2C1 (centres unmarked) [Compound A8, (5-cyclopropanecarbonyl-hexahydro-pyrrolo[3,4-c]pyrrol-2-yl)-(4-isoquinolin-6-yl-phenyl)-methanone]"
